Results taken from patent publication US11957699B2, “Composition comprising punicalagin for inhibiting PAR2 activity” (INDUSTRY-ACADEMIC COOPERATION FOUNDATION, YONSEI UNIVERSITY, priority 2018, dated 2024).

What was measured:
PAR2 [1] = biological target: T1, PAR2 (Homo sapiens, UniProt P55085); test: Increase of intracellular calcium ions by PAR2-AP in HT-29 cells (Fluo4-NW); assay type: cell-based; set-up: endogenous in cells; host or cells: HT-29 colon cancer cells
T1 sequence (P55085 26-397): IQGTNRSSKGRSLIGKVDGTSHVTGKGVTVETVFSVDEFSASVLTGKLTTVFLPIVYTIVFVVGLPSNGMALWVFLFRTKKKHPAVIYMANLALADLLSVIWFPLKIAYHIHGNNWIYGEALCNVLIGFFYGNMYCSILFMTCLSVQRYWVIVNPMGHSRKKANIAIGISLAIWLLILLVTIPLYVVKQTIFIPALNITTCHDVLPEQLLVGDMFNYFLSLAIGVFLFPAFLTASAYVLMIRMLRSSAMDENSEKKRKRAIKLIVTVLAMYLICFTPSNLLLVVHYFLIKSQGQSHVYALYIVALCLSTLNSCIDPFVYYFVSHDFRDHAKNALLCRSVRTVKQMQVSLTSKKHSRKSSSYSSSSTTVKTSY
Protocol: After colon cancer cells (HT-29) were cultured for 48 hours in a 96-well micro plate with the RPMI1640 culture medium, the culture medium was removed, and then, 100 μL of the Flou4-NW dye mixture was added. While blocking the light, it was stabilized for 1 hour such that a calcium ion dye (Ca^2+ dye) was loaded into the cells. Next, after treating punicalin (0, 3, 10, and 30 μM), punicalagin (0, 0.3, 1, 2, 3, and 10 μM), or ellagic acid (0, 30, and 100 μM) for 10 minutes by concentration, each well was treated with 30 μM PAR2-AP (PAR2-activating peptide, SLIGRL-NH2) to measure the concentration change in intracellular calcium ions.

[2] = system: C57BL6N mice with pruritus induced by PAR2-AP; test: Pruritus induced by PAR2-AP in mice (number of scratches); assay type: in vivo
Protocol: In seven-week-old C57BL6N mice, it was confirmed whether punicalagin (PG) has an effect of alleviating pruritus symptoms induced by PAR2 receptor activation by PAR2-AP (activating peptide). In addition, the effects of punicalin (PNC) and ellagic acid (EA), which are metabolites of punicalagin and contained in pomegranate peel in a large amount, were also confirmed.
Specifically, each of 0, 1, 3, and 10 mg/kg punicalagin (n=4) was dissolved in physiological saline and intraperitoneally injected, and after 30 minutes, 100 μg of PAR2-AP was intradermally injected to induce pruritus. As control groups, a group which was intraperitoneally injected with physiological saline only (n=4) and a group which was intraperitoneally injected with 10 mg/kg punicalagin (n=4) were established, and the number of scratches was measured for 40 minutes.

PAR2 [3] = biological target: T1, PAR2; test: Intracellular calcium increase by trypsin (PAR2 receptor activation) in HaCaT keratinocytes; assay type: cell-based; set-up: endogenous in cells; host or cells: HaCaT keratinocytes; conditions: HaCaT, 0.1 μM trypsin, 10 minutes pretreatment
Protocol: After keratinocytes (HaCaT) were cultured for 48 hours in a 96-well micro plate with the DMEM culture medium, the culture medium was removed, and then, 100 μL of the Flou4-NW dye mixture was added. While blocking the light, it was stabilized for 1 hour such that a calcium ion dye (Ca^2+ dye) was loaded into the cells. 100 μM punicalagin was treated, and the concentration change of intracellular calcium ions was measured for 5 minutes (panel A of FIG. 17). Next, punicalin (0, 1, 3, 10, 20, 30, 100, and 300 μM) by concentration (panel B of FIG. 17) or punicalagin (0, 1, 3, 5, 10, 20, 30, and 100 μM) by concentration (panel C of FIG. 17) was treated for 10 minutes, and then, each well was treated with 0.1 μM trypsin to measure the concentration change of intracellular calcium ions according to PAR2 receptor activation.

[4] = system: SD rats with acute pancreatitis induced by caerulein; test: Acute pancreatitis induced by caerulein in rats; assay type: in vivo; conditions: 10 mg/kg, 30 minutes before 40 μg/kg caerulein, pancreas extracted after 2 hours
Protocol: In 6-week-old SD rats, it was confirmed whether punicalagin has an effect of alleviating symptoms of acute pancreatitis induced by caerulein.
Specifically, […], and after 30 minutes, 40 μg/kg of caerulein, which is an acute pancreatitis-inducing substance, was intraperitoneally injected, and then, after 2 hours, the pancreas of the experimental animals was extracted and analyzed.
First, the weight of the extracted pancreas was measured to determine whether punicalagin inhibits edema, which is a symptom of acute pancreatitis. As a result, it was confirmed that when 10 mg/kg punicalagin was administered to […], in which acute pancreatitis was induced by caerulein, the edema of the pancreas was inhibited by 95% or more (panel A of FIG. 8).
Next, as a result of observing the nucleus and cytoplasm of the extracted pancreatic tissue with a microscope through H&E staining in order to confirm the damage to pancreatic cells by caerulein, it was confirmed that in the rats administered with caerulein, the distance between pancreatic cells was increased and the cells were damaged due to symptoms of acute pancreatitis.

Row | SMILES | inhibitory effect on the PAR2 receptor (PAR2 [1]; found by compound library search and molecular physiological experiments) | number of scratches for 40 minutes ([2]; 10 mg/kg, PAR2-AP group about 240) | inhibition of PAR2 receptor activity by trypsin (PAR2 [3]) | inhibition of the PAR2 receptor (PAR2 [1]; HT-29 cells, PAR2-AP, high concentration (100 μM)) | inhibition of edema of the pancreas (pancreas weight) [4] | numbers of scratches ([2]; 3 mg/kg ellagic acid group (n=3))
1 | O=C1OC[C@H]2OC(O)[C@H](O)[C@@H](O)[C@@H]2OC(=O)c2cc(O)c(O)c(O)c2-c2c(O)c(O)c3oc(=O)c4c(c(O)c(O)c5oc(=O)c2c3c54)-c2c1cc(O)c(O)c2O (mixture of isomers) [punicalin, reference compound] | relatively weak inhibitory effect | about 197 times | inhibited PAR2 receptor activity by trypsin in a concentration-dependent manner |  |  | 
2 | O=c1oc2c(O)c(O)cc3c(=O)oc4c(O)c(O)cc1c4c23 [ellagic acid, reference compound] |  |  |  | did not inhibit | not significantly inhibited | not significantly reduced
